US12485079B2, “Compositions and methods relating to pigmentation” (Alastin Skincare, Inc., priority 2020, dated 2025)

What was measured:
[1] = system: carrageenan-induced inflammation; conditions: rats; cited from earlier work
[2] = system: UV-B-induced hyperpigmentation; conditions: topical application for 4 weeks, mice skin; cited from earlier work
[3] = system: pigmented reconstructed epidermis; conditions: cited from earlier work
[4] = system: hTERT-immortalized dermal melanocytes; experiment: Melanocyte assay, daily inspection of morphology and survival (Example 6); conditions: both concentrations of the compound
Description: (§4) Melanocytes were initially plated in 6-well tissue culture plate (1.5×10^3 cells per well) in melanocyte growth media (Dermal Cell Basal Medium (ATCC® PCS-200-030 supplemented with Melanocyte Growth Kit (ATCC® PCS-200-041). Melanocytes were then expanded into 10 cm tissue culture plates at concentrations recommended by ATCC. The cells appear to fully adhere to the plate/dish while culturing with a webbed morphology. Cells were cultured at 37° C. 5% CO2 incubator.
(§5) Once the melanocytes were 100% confluent in 6-well plates, the melanocyte growth media was removed and the melanocytes were treated with media containing the above compounds; duplicate wells for each compound/concentration listed above. The duplicate vehicle control wells were fed melanocyte growth media only or melanocyte growth media with DMSO (10 uL per 10 mL melanocyte growth media).
(§6) The cells were fed the appropriate media for the next 5 days. Each day, the cells were inspected for morphology.

[5] = system: hTERT-immortalized dermal melanocytes; conditions: human
Description: as §4, §5, §6

[6] = system: melanocytes (melanin production); experiment: In vitro melanocyte comparative analysis via absorbance readings (Example 4); type: cell-based; conditions: for regulation of melanogenesis (decrease of absorption = decreased melanin formation): Table 8; for Absorbance 405 nm / Absorbance 490 nm / Absorbance 492 nm: melanocyte lysates
Description: Melanocytes were cultured in 6-well plates containing growth media. Once confluent, 2 concentrations of each of the 10 compounds were added to the cells in triplicate wells for 4 days. There were a total of eleven 6-well plates, one for each compound treatment and one for the vehicle control. Absorbance readings were taken on the lysates prepared for each well of the 6-well plates, normalizing for cells counts. […] Additional validation was carried out using MSH addition to media to confirm increased stimulation of melanin production. The following compounds used in this study are seen in Table 7.

[7] = system: SCF, LIF, POMC, endothelin genes, PGE2, NGF in keratinocytes; experiment: Gene expression study (RNA sequencing) in keratinocytes; type: cell-based, human; conditions: 24 hours of compound exposure
Description: (§1) Four cell types associated with pigmentation pathways-melanocytes, keratinocytes, fibroblasts and endothelial (HUVEC) cells-were analyzed for gene expression.
(§2) To simulate the UV stimulatory pigmentation pathway process, melanocytes were pre-treated with PGE2, a normal direct consequence of UV light exposure usually emanating from exposed keratinocytes. After the 48 hour attachment culture, these melanocytes were induced with 10 uM PGE2 in melanocyte media for 24 hrs. The four primary human adult dermal cell lines were cultured and plated in well plates in triplicate and then treated with 11 different compound treatments (plus DMSO control). After 48 hours of attachment culture, the remaining fibroblasts, HUVECs and keratinocytes were treated with the test compounds listed in Table 6.
(§3) After 24 hours of compound exposure, RNA lysate preparation was carried out and samples were shipped to MedGenome for RNA extraction, library construction and sequencing to 25M paired end 100 bp reads per sample. Library prep and sequencing was completed at MedGenome.

melanogenic genes = experiment: Cell line melanogenic gene activity testing, overall conclusion; type: cell-based, human; conditions: conclusion over melanocytes, keratinocytes, HUVECs
Description: as §1, §2, §3

[8] = system: PMEL, tyrosinase genes, MC1/4R, EDNRB, MITF, ERK1/2, JNK, AKT1; experiment: Gene expression studies of Example 5; type: cell-based
Source text: The methods similar to Examples 3-4 were used to measure expression of PMEL, tyrosinase genes, MC1/4R, EDNRB, MITF, ERK1/2, JNK, and ANKT1.
FIGS. 10A-10D illustrates the expression of PMEL (FIG. 10A), Tyrosinase genes (FIG. 10B), MC1/4R (FIG. 10C), and EDNRB (FIG. 10D) after treatment of endothelial cells with lactoferrin (Lacto), peptide derived from lactoferrin (TCV), hexapeptide-12 (Hex12), tripeptide-1 and hexapeptide-12 (TriHex), hexapeptide-11 (Hex11), tranexamic acid (Tran acid) octapeptide (Octa), phosphatidylserine (phos), Cannabidiol (CBD), and all (total).
MITF is regulated by phosphorylation. Specifically, the MAPK and Akt pathways are known to phosphorylate MITF at certain sites. FIGS. 12A-12C illustrate the expression of ERK1/2 (MAPK3/MAPK1) (FIG. 12A), JNK (FIG. 12B), AKT1 (FIG. 12C) after treatment of endothelial cells with lactoferrin (Lacto), peptide derived from lactoferrin (TCV), hexapeptide-12 (Hex12), tripeptide-1 and hexapeptide-12 (TriHex), hexapeptide-11 (Hex11), octapeptide (Octa), phosphatidylserine (phos), Cannabidiol (CBD), and all (total).

MITF = experiment: In vitro MITF gene expression test in cultured fibroblasts; type: cell-based; conditions: 48 hours
Description: Microphthalmia-associated transcription factor (MITF) is a master regulator of pigmentation and melanin transfer and a potential new target for hyperpigmentation and melanoma. In vitro MITF gene expression tests were carried out to ascertain differences between individual peptides (tripeptide-1 and hexapeptide-12) and their combination in terms of MITF downregulation.
Specifically, the tests were conducted by culturing fibroblasts and then adding tripeptide-1, hexapeptide-12, or a combination of both. After 48 hours, MITF gene expression was analyzed.

[9] = system: melanogenic genes in melanocytes; experiment: Gene expression study (RNA sequencing) in PGE2-induced melanocytes; type: cell-based, human
Description: as §1, §2, §3

[10] = system: EDN1 and other melanogenic genes in HUVECs; experiment: Gene expression study (RNA sequencing) in HUVECs; type: cell-based, human; conditions: 24 hours of compound exposure
Description: as §1, §2, §3

For `C=C(C)[C@@H]1CCC(C)=C[C@H]1c1c(O)cc(CCCCC)cc1O` [CBD, Cannabidiol], the “PGE2, nitric oxide (NO), and malondialdehyde production, together with COX activity” value [1] is listed as “reduced”.

For `O=C(O)c1cc(O)c(O)c(O)c1` [GA, Gallic acid], the UV-B-induced hyperpigmentation [2] is given as “significantly rescued”.

In the case of `COc1ccc([C@@H]2CC(=O)c3c(O)cc(O[C@@H]4O[C@H](CO[C@@H]5O[C@@H](C)[C@H](O)[C@@H](O)[C@H]5O)[C@@H](O)[C@H](O)[C@H]4O)cc3O2)cc1O` [Hesperidin], the skin lightening effect [3] is given as “showed skin lightening effect”.

In the case of `C/C=C1/[C@H](O[C@@H]2O[C@H](CO)[C@@H](O)[C@H](O)[C@H]2O)OC=C(C(=O)OC)[C@H]1CC(=O)OCCc1ccc(O)c(O)c1` [Oleuropein], the “time post-initial dosing at which melanocytes started dying” value [4] is reported as 24 h and the “time post-initial dosing at which all or nearly all melanocytes were dead” value [5] is reported as 72 h.

With `Oc1ccc2c(c1)OCO2` [Sesamol] the “regulation of melanogenesis (decrease of absorption = decreased melanin formation)” value ([6]; melanocytes) was “Regulation of melanogenesis was also observed”.

In the case of `NC[C@H]1CC[C@H](C(=O)O)CC1` [Tranexamic Acid, Tranexamic acid, reference compound], the “regulation of melanogenesis (decrease of absorption = decreased melanin formation)” value ([6]; melanocytes) is reported as “Regulation of melanogenesis was also observed”.

In the case of Hexapeptide-11 [HEX-11], the “melanogenesis activity (FIGS. 6A-6F, FIG. 7)” value [7] is reported as “active ingredient in melanogenesis activity”, the “effects on melanogenesis activity” value (melanogenic genes) is reported as “significant effects on melanogenesis activity” and the “regulation of melanogenesis (decrease of absorption = decreased melanin formation)” value ([6]; melanocytes) is reported as “Regulation of melanogenesis was observed”.

With Hexapeptide-12 [HEX-12] the “melanogenic activity (expression of PMEL, Tyrosinase genes, MC1/4R, EDNRB; FIGS. 10A-10D)” value ([8]; after treatment of endothelial cells) was “robust melanogenic activity”, the “effects on melanogenic activity (kinase expression linked to decreased MITF expression)” value ([8]; conclusion of Example 5) was “significant effects” and the “effects on melanogenesis activity” value (melanogenic genes) was “significant effects on melanogenesis activity”. The MITF gene expression (MITF; 80 ppm Hexapeptide, negative = downregulation) was −1.16, the “Absorbance 405 nm” value ([6]; 2.9 ug/mL) was 1.32 and the “Absorbance 490 nm” value ([6]; 2.9 ug/mL) was 0.94. For the same molecule, the “Absorbance 492 nm” value ([6]; 2.9 ug/mL) was 0.64, the “Absorbance 405 nm” value ([6]; 4.9 ug/mL) was 0.96 and the “Absorbance 490 nm” value ([6]; 4.9 ug/mL) was 0.64. For the same molecule, the “Absorbance 492 nm” value ([6]; 4.9 ug/mL) was 0.46, the “stimulation of melanin production (model validation)” value ([6]; melanocytes) was “decreased stimulation” and the “regulation of melanogenesis (decrease of absorption = decreased melanin formation)” value ([6]; melanocytes) was “Regulation of melanogenesis was observed”. The “melanogenic activity (FIGS. 3A-3D)” value ([9]; melanocytes pre-treated with 10 uM PGE2, 24 hours of compound exposure) was “particularly dominant in melanogenic activity” and the “expression of melanogenic genes (FIG. 4, FIG. 5)” value ([9]; melanocytes, 24 hours of compound exposure) was “downregulation of melanogenic genes”.

In the case of Phosphatidylserine, the “effects on melanogenesis activity” value (melanogenic genes) is reported as “significant effects on melanogenesis activity”, the “activity on EDN1 and other melanogenic genes (FIG. 9)” value [10] is reported as “potent activity” and the “regulation of melanogenesis (decrease of absorption = decreased melanin formation)” value ([6]; melanocytes) is reported as “Regulation of melanogenesis was observed”.

With Tripeptide-1 the MITF gene expression (MITF; 120 xppm Tripeptide, positive = upregulation) was 1.72 and the MITF gene expression (MITF; 120 xppm Tripeptide, positive = upregulation, listed as tripeptide-1) was “+1.72”.
